# Several values for one entry are separate records, joined by “and”; a condition that tells them apart may be missing. Equal values may be shown once.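 Values below derive from 48-hour exposures of cells grown in 96-well plates, with endpoints linearly interpolated between the two concentrations bracketing the appropriate inhibition level. At the GI50, growth is halved.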 Activity calls are given as the source filed them. Rule as the data show it: active = GI50 up to about 1.1 µM and inactive = higher.
# Columns and labels:
# Assay in all cases: NCI anticancer screen, dose series, 48 h
# [1] = system: OVCAR-4
# [2] = system: SK-MEL-2
# [3] = system: SK-MEL-28
# [4] = system: U-251
# [5] = system: SF-268
# [6] = system: K562
# [7] = system: HT-29
# [8] = system: DU-145
# [9] = system: CCRF-CEM
# [10] = system: NCI-H460
# [11] = system: OVCAR-3
# [12] = system: SNB-19
# [13] = system: 786-0
# [14] = system: NCI/ADR-RES
# [15] = system: LOX IMVI
# [16] = system: HOP-62
# [17] = system: MCF7
# [18] = system: SF-295
# [19] = system: HOP-92
# [20] = system: RXF 393
Structure (SMILES),GI50 [1],GI50 [2],GI50 [3],GI50 [4],GI50 [5],GI50 [6],GI50 [7],GI50 [8],GI50 [9],GI50 [10],GI50 [11],GI50 [12],GI50 [13],GI50 [14],GI50 [15],GI50 [16],GI50 [17],GI50 [18],GI50 [19],GI50 [20]
C=C(C)c1cc(C(C)(C)C)cc(C(=C)C)c1S(C)(=O)=O,> 100 µM (inactive),> 100 µM (inactive),> 100 µM (inactive),> 100 µM (inactive),> 100 µM (inactive),> 100 µM (inactive),> 100 µM (inactive),> 100 µM (inactive),> 100 µM (inactive),> 100 µM (inactive),> 100 µM (inactive),> 100 µM (inactive),> 100 µM (inactive),> 100 µM (inactive),> 100 µM (inactive),> 100 µM (inactive),> 100 µM (inactive),> 100 µM (inactive),,
O=C1c2cc(O)c(O)cc2O[C@H](c2ccc(O)c(O)c2)[C@H]1O,,> 100 µM (inactive),> 100 µM (inactive),> 100 µM (inactive),> 100 µM (inactive),> 100 µM (inactive),> 100 µM (inactive),> 100 µM (inactive),68.4 µM (inactive),49.7 µM (inactive),> 100 µM (inactive),> 100 µM (inactive),> 100 µM (inactive),> 100 µM (inactive),> 100 µM (inactive),80.7 µM (inactive),> 100 µM (inactive),> 100 µM (inactive),> 100 µM (inactive),
CCCCCCC(=O)O[C@H]1CC[C@H]2[C@@H]3CCC4C/C(=N/NC(=O)c5cccc6c(=O)c7ccccc7[nH]c56)C=C(C)[C@]4(C)[C@H]3CC[C@]12C (stereo partly drawn),> 25 µM (inactive),> 25 µM (inactive),,> 25 µM (inactive),> 25 µM (inactive),> 25 µM (inactive),> 25 µM (inactive),> 25 µM (inactive),> 25 µM (inactive),,> 25 µM (inactive),> 25 µM (inactive),> 25 µM (inactive),> 25 µM (inactive),> 25 µM (inactive),> 25 µM (inactive),> 25 µM (inactive),> 25 µM (inactive),> 25 µM (inactive),
Nc1ccn(C2CC(O)C(COP(=O)(S)OC3CC(n4ccc(N)nc4=O)OC3CO)O2)c(=O)n1 (stereo not drawn),> 100 µM (inactive),> 100 µM (inactive),> 100 µM (inactive),> 100 µM (inactive),> 100 µM (inactive),,> 100 µM (inactive),> 100 µM (inactive),> 100 µM (inactive),> 100 µM (inactive),> 100 µM (inactive),> 100 µM (inactive),> 100 µM (inactive),> 100 µM (inactive),> 100 µM (inactive),> 100 µM (inactive),> 100 µM (inactive),> 100 µM (inactive),> 100 µM (inactive),
Cc1nc2ccccc2c(=O)n1/N=C(\N=N\c1cc(Cl)ccc1Cl)c1cccc(-c2ccco2)c1,> 100 µM (inactive),84.5 µM (inactive),> 100 µM (inactive),> 100 µM (inactive),92 µM (inactive),> 10 µM (inactive),> 100 µM (inactive),,> 10 µM (inactive),> 100 µM (inactive),> 100 µM (inactive),> 100 µM (inactive),> 100 µM (inactive),,> 100 µM (inactive),> 100 µM (inactive),,> 100 µM (inactive),27.6 µM (inactive),67.8 µM (inactive)
C/C(=N\NC(=S)N1CC2CCC(CC2)C1)c1cccc(C)n1,0.352 µM (active),4.7 µM (inactive),2.94 µM (inactive),0.551 µM (active),0.533 µM (active),< 0.0112 µM (active),0.01 µM (active),0.617 µM (active),0.01 µM (active),0.248 µM (active),0.01 µM (active),1.75 µM (inactive),1.08 µM (active),0.01 µM (active),0.78 µM (active),1.06 µM (active),,0.445 µM (active),2.2 µM (inactive),3.72 µM (inactive)
COc1ccccc1/N=N/c1c(O)ccc2ccccc12,,> 63.4 µM (inactive) and 65 µM (inactive),85.3 µM (inactive),14.2 µM (inactive) and 18.9 µM (inactive),29.9 µM (inactive) and 33.4 µM (inactive),> 100 µM (inactive) and 82.8 µM (inactive),34.6 µM (inactive) and 30.7 µM (inactive),54.2 µM (inactive) and 98.9 µM (inactive),,18.9 µM (inactive),31.4 µM (inactive) and 32.1 µM (inactive),27.6 µM (inactive) and 26.9 µM (inactive),13.8 µM (inactive) and 19.3 µM (inactive),42.1 µM (inactive) and 35 µM (inactive),,15.8 µM (inactive) and 14.5 µM (inactive),52.8 µM (inactive),20 µM (inactive) and 28.5 µM (inactive),22.8 µM (inactive) and 14.6 µM (inactive),
Cc1ccc(NC(=O)C(=O)C2NC(=S)NC2=O)c([N+](=O)[O-])c1 (stereo not drawn),> 100 µM (inactive),> 100 µM (inactive),> 100 µM (inactive),> 100 µM (inactive),> 100 µM (inactive),> 100 µM (inactive),> 100 µM (inactive),,> 100 µM (inactive),> 100 µM (inactive),> 100 µM (inactive),> 100 µM (inactive),> 100 µM (inactive),,> 100 µM (inactive),> 100 µM (inactive),,> 100 µM (inactive),45.5 µM (inactive),> 100 µM (inactive)
Cc1ccc(S(=O)(=O)N/N=C\c2c3ccccc3[n+](C)c3ccccc23)cc1,27.6 µM (inactive),43.8 µM (inactive),31.5 µM (inactive),24 µM (inactive),29.2 µM (inactive),15.6 µM (inactive),19.4 µM (inactive),,15.3 µM (inactive),19.8 µM (inactive),26.1 µM (inactive),24.9 µM (inactive),28.1 µM (inactive),,11.2 µM (inactive),34.1 µM (inactive),,13.8 µM (inactive),17.1 µM (inactive),15.9 µM (inactive)
O=C(O/N=C1/CCCC/C1=C\c1ccccc1)c1ccc(Cl)cc1,53 µM (inactive),> 100 µM (inactive),> 100 µM (inactive),89.3 µM (inactive),> 100 µM (inactive),> 100 µM (inactive),> 100 µM (inactive),,> 100 µM (inactive),> 100 µM (inactive),> 100 µM (inactive),> 100 µM (inactive),> 100 µM (inactive),,57.8 µM (inactive),> 100 µM (inactive),,47.4 µM (inactive),40.9 µM (inactive),> 100 µM (inactive)
CC1(C)OCN(c2ccc(N3CCOCC3)cc2)Cn2c1nc1ccccc12,29.6 µM (inactive),> 100 µM (inactive),> 100 µM (inactive),> 100 µM (inactive),> 100 µM (inactive),> 100 µM (inactive),> 100 µM (inactive),,40.7 µM (inactive),> 100 µM (inactive),> 100 µM (inactive),> 100 µM (inactive),> 100 µM (inactive),,31.8 µM (inactive),> 100 µM (inactive),,> 100 µM (inactive),> 100 µM (inactive),39.1 µM (inactive)
C=C1C(=O)C23C(O)C1CC[C@H]2C12CCCC(C)(COC(C)=O)[C@H]1[C@H](O)[C@]3(O)OC2 (stereo partly drawn),2.15 µM (inactive),1.85 µM (inactive),1.14 µM (inactive),2.21 µM (inactive),3.19 µM (inactive),0.128 µM (active),1.8 µM (inactive),4.3 µM (inactive),0.211 µM (active),2.24 µM (inactive),1.61 µM (inactive),3.44 µM (inactive),0.966 µM (active),,1.52 µM (inactive),3.09 µM (inactive),1.78 µM (inactive),0.891 µM (active),1.39 µM (inactive),0.407 µM (active)
COC(=O)c1cnc(Cl)cn1,20.2 µM (inactive),48 µM (inactive),53.3 µM (inactive),34.9 µM (inactive),49 µM (inactive),40.1 µM (inactive),54.3 µM (inactive),> 100 µM (inactive),35.9 µM (inactive),> 100 µM (inactive),,> 100 µM (inactive),> 100 µM (inactive),45.6 µM (inactive),33.4 µM (inactive),> 100 µM (inactive),38.4 µM (inactive),> 100 µM (inactive),28.4 µM (inactive),
O=C(O)CSc1nc2ccccc2[nH]1,> 100 µM (inactive),74.1 µM (inactive),> 100 µM (inactive),> 100 µM (inactive),> 100 µM (inactive),> 100 µM (inactive),> 100 µM (inactive),> 100 µM (inactive),,> 100 µM (inactive),> 100 µM (inactive),> 100 µM (inactive),> 100 µM (inactive),> 100 µM (inactive),> 100 µM (inactive),> 100 µM (inactive),,> 100 µM (inactive),> 100 µM (inactive),> 100 µM (inactive)
O=S(=O)(O)c1cc(O)c(/N=N/c2ccc3ccccc3c2O)c2ccccc12 [ERIOCHROME BLUE BLACK B],78.3 µM (inactive),26.9 µM (inactive),45.6 µM (inactive),32.4 µM (inactive),10.5 µM (inactive),18 µM (inactive),24.7 µM (inactive),14.3 µM (inactive),21.9 µM (inactive),,4.71 µM (inactive),37.8 µM (inactive),31.4 µM (inactive),15.6 µM (inactive),,30.3 µM (inactive),,27.4 µM (inactive),28.5 µM (inactive),80.9 µM (inactive)
